Source: patent US20230399312A1, “SUBSTITUTED PYRIMIDINES AND METHODS OF USE” (THERAVANCE BIOPHARMA R&D IP, LLC, priority 2020, published 2023)
pKi: −log10 of the molar value.

Tests used:
[1] = test system: TGF-β-stimulated SMAD3 phosphorylation in BEAS-2B cells; experiment: Cellular ALK5 potency assay, inhibition of TGF-β stimulated pSMAD3 formation in BEAS-2B cells; format: cell-based; conditions: Homo sapiens, pSMAD3, TGF-β 10 ng/mL, read-out: BEAS2B pIC50 (converted)
Summary of the method: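 Potency is expressed as pIC50, based on dose-dependent reduction of TGF-β-induced pSMAD3 AlphaLISA signal relative to stimulated cells without compound. BEAS-2B cells received compound 1 h before a 30 min, 10 ng/mL TGF-β challenge.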

[2] = molecular target: T1, recombinant human ALK5 (TGF-βR1) protein (Homo sapiens, UniProt P36897); experiment: Biochemical ALK5 (TGF-βR1) assay to measure pKi (LANCE Ultra ULight kinase assay); conditions: apparent pKi, converted from pIC50 by Cheng-Prusoff
T1 construct: purchased Life Technologies PR9075A
T1 sequence (P36897 34-503): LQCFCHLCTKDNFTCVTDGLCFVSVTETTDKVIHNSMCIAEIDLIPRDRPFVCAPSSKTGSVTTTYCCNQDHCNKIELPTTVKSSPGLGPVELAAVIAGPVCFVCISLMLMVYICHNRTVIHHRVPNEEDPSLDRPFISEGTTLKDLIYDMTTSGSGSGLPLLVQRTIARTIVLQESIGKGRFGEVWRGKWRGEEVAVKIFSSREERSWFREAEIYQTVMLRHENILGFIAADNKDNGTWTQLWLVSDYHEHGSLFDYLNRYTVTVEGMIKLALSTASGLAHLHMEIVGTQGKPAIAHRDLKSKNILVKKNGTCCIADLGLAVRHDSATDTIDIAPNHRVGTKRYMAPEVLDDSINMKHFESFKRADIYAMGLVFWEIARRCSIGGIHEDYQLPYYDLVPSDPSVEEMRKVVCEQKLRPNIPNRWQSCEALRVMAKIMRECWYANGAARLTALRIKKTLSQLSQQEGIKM
Summary of the method: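 Enzyme was preincubated with compound for 60 min at room temperature, then ATP (added from a 125 μM 5× stock with 2 mM DTT) started a 60 min reaction at 37 °C. EDTA plus Eu-anti-phospho-Topo2α (Thr1342) antibody stopped it; TR-FRET pIC50 values were converted to pKi by Cheng-Prusoff.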

pKi [2] | SMILES | IC50 [1] [nM]
9.50 to 10.40 | Cc1cccc(-c2nccc(Nc3ccnc(Nc4ccc(N5CCN(C(=O)CSC6CCOC6=O)CC5)cc4)n3)n2)n1 (stereo not drawn) [Compound 149, 3-[2-[4-[4-[[4-[[2-(6-methyl-2-pyridyl)pyrimidin-4-yl]amino]pyrimidin-2-yl]amino]phenyl]piperazin-1-yl]-2-oxo-ethyl] sulfanyltetrahydrofuran-2-one] | 25.1 to 158
9.50 to 10.40 | Cc1cccc(-c2nc(Nc3ccnc(Nc4ccc(NCC5CNC5)cc4)n3)c3cccn3n2)n1 [Compound 1016, N2-[4-(azetidin-3-ylmethylamino)phenyl]-N4-[2-(6-methyl-2-pyridyl)pyrrolo[2,1-f][1,2,4]triazin-4-yl]pyrimidine-2,4-diamine] | 25.1 to 158
9.50 to 10.40 | Cc1cccc(-c2nccc(Nc3ccnc(Nc4ccc(CN5CCNCC5(C)C)cc4)n3)n2)n1 [Compound 480, N2-[4-[(2,2-dimethylpiperazin-1-yl)methyl]phenyl]-N4-[2-(6-methyl-2-pyridyl)pyrimidin-4-yl]pyrimidine-2,4-diamine] | 25.1 to 158
9.50 to 10.40 | COC(=O)C1CCN(c2ccc(Nc3nccc(Nc4ccnc(-c5cccc(C)n5)n4)n3)cc2)CC1 [Compound 60, methyl 1-[4-[[4-[[2-(6-methyl-2-pyridyl)pyrimidin-4-yl]amino]pyrimidin-2-yl]amino]phenyl]piperidine-4-carboxylate] | 25.1 to 158
9.50 to 10.40 | Cc1cccc(-c2nccc(Nc3ccnc(Nc4ccc5c(c4)CN(C(C)C)CC5)n3)n2)n1 [Compound 198, N2-(2-isopropyl-3,4-dihydro-1H-isoquinolin-7-yl)-N4-[2-(6-methyl-2-pyridyl)pyrimidin-4-yl]pyrimidine-2,4-diamine] | 25.1 to 158
9.50 to 10.40 | Cc1cccc(-c2nccc(Nc3ccnc(Nc4csc(C(=O)OCCN5CC[C@@H](N)C5)c4)n3)n2)n1 [Compound 568, 2-[(3R)-3-aminopyrrolidin-1-yl]ethyl 4-[[4-[[2-(6-methyl-2-pyridyl)pyrimidin-4-yl]amino]pyrimidin-2-yl]amino]thiophene-2-carboxylate] | 25.1 to 158
9.50 to 10.40 | Cc1cccc(-c2nccc(Nc3ccnc(Nc4ccc(CN5C[C@H]6C[C@@H]5CN6)cc4)n3)n2)n1 [Compound 279, N2-[4-[[(1R,4R)-2,5-diazabicyclo[2.2.1]heptan-2-yl]methyl]phenyl]-N4-[2-(6-methyl-2-pyridyl)pyrimidin-4-yl]pyrimidine-2,4-diamine] | 25.1 to 158
8.50 to 9.40 | Cc1cccc(-c2nccc(Nc3ccnc(Nc4ccc(N)cc4)n3)n2)n1 [Compound 5, N2-(4-aminophenyl)-N4-[2-(6-methyl-2-pyridyl)pyrimidin-4-yl]pyrimidine-2,4-diamine] | ≤ 20
8.50 to 9.40 | Cc1cccc(-c2nccc(Nc3ccnc(Nc4nc(CN5C[C@@H](C)N[C@@H](C)C5)cs4)n3)n2)n1 [Compound 391, N4-[2-(6-methyl-2-pyridyl)pyrimidin-4-yl]-N2-[4-[[rac-(3R,5S)-3,5-dimethylpiperazin-1-yl]methyl]thiazol-2-yl]pyrimidine-2,4-diamine] | 25.1 to 158
9.50 to 10.40 | Cc1cccc(-c2nccc(Nc3ccnc(Nc4ccc(CN5CCCC(C(=O)NC6CCNCC6)C5)cc4)n3)n2)n1 (stereo not drawn) [Compound 320, 1-[[4-[[4-[[2-(6-methyl-2-pyridyl)pyrimidin-4-yl]amino]pyrimidin-2-yl]amino]phenyl]methyl]-N-(4-piperidyl)piperidine-3-carboxamide] | 25.1 to 158
9.50 to 10.40 | Cc1cccc(-c2nccc(Nc3ccnc(Nc4cnn(CCN5CCOCC5)c4)n3)n2)n1 [Compound 84, N4-(2-(6-methylpyridin-2-yl)pyrimidin-4-yl)-N2-(1-(2-morpholinoethyl)-1H-pyrazol-4-yl)pyrimidine-2,4-diamine] | 25.1 to 158
9.50 to 10.40 | Cc1cccc(-c2nccc(Nc3ccnc(Nc4ccc(CN5CC(C(=O)O)C5)cc4)n3)n2)n1 [Compound 237, 1-[[4-[[4-[[2-(6-methyl-2-pyridyl)pyrimidin-4-yl]amino]pyrimidin-2-yl]amino]phenyl]methyl] azetidine-3-carboxylic acid] | 200 to 1260
8.50 to 9.40 | COC(=O)C1CN(Cc2ccc(Nc3nccc(Nc4ccnc(-c5cccc(C)n5)n4)n3)cc2)CCN1C (stereo not drawn) [Compound 201, methyl 1-methyl-4-[[4-[[4-[[2-(6-methyl-2-pyridyl)pyrimidin-4-yl]amino]pyrimidin-2-yl]amino]phenyl]methyl] piperazine-2-carboxylate] | 25.1 to 158
9.50 to 10.40 | Cc1cccc(-c2nccc(Nc3ccnc(Nc4ccc(CN5CCC(C(=O)O[C@H]6CCN(C)C6)C5)cc4)n3)n2)n1 (stereo partly drawn) [Compound 161, [(3S)-1-methylpyrrolidin-3-yl] 1-[[4-[[4-[[2-(6-methyl-2-pyridyl)pyrimidin-4-yl]amino]pyrimidin-2-yl]amino]phenyl]methyl] pyrrolidine-3-carboxylate] | ≤ 20
8.50 to 9.40 | Cc1cccc(-c2nccc(Nc3ccnc(Nc4ccc(N5CCOCC5)cn4)n3)n2)n1 [Compound 281, N4-[2-(6-methyl-2-pyridyl)pyrimidin-4-yl]-N2-(5-morpholino-2-pyridyl)pyrimidine-2,4-diamine] | 25.1 to 158
9.50 to 10.40 | Cc1cccc(-c2nccc(Nc3ccnc(Nc4ccc(N5CCCC(C(=O)OC6CCNCC6)C5)cc4)n3)n2)n1 (stereo not drawn) [Compound 215, 4-piperidyl 1-[4-[[4-[[2-(6-methyl-2-pyridyl)pyrimidin-4-yl]amino]pyrimidin-2-yl]amino]phenyl]piperidine-3-carboxylate] | 200 to 1260
≥ 10.50 | Cc1cccc(-c2nccc(Nc3ccnc(Nc4csc(CN5CCNCC5)c4)n3)n2)n1 [Compound 94, N4-(2-(6-methylpyridin-2-yl)pyrimidin-4-yl)-N2-(5-(piperazin-1-ylmethyl)thiophen-3-yl)pyrimidine-2,4-diamine] | ≤ 20
9.50 to 10.40 | Cc1cccc(-c2nccc(Nc3ccnc(Nc4cncc(CN5CC(C(=O)OCC6CNC6)C5)c4)n3)n2)n1 [Compound 614, azetidin-3-ylmethyl 1-[[5-[[4-[[2-(6-methyl-2-pyridyl)pyrimidin-4-yl]amino]pyrimidin-2-yl]amino]-3-pyridyl]methyl]azetidine-3-carboxylate] | 25.1 to 158
9.50 to 10.40 | Cc1cccc(-c2nccc(Nc3ccnc(Nc4cccc(NC(=O)NC5CNC5)c4)n3)n2)n1 [Compound 125, 1-(azetidin-3-yl)-3-[3-[[4-[[2-(6-methyl-2-pyridyl)pyrimidin-4-yl]amino]pyrimidin-2-yl]amino]phenyl]urea] | 25.1 to 158
≥ 10.50 | Cc1cccc(-c2nccc(Nc3ccnc(Nc4ccc(CN5CCC(O)CC5)cc4)n3)n2)n1 [Compound 405, 1-[[4-[[4-[[2-(6-methyl-2-pyridyl)pyrimidin-4-yl]amino]pyrimidin-2-yl]amino]phenyl]methyl] piperidin-4-ol] | 25.1 to 158

SMILES | pKi [2] | IC50 [1] [nM]
Cc1cccc(-c2nccc(Nc3ccnc(Nc4ncc(C5=CCNCC5)s4)n3)n2)n1 [Compound 623, N4-[2-(6-methyl-2-pyridyl)pyrimidin-4-yl]-N2-[5-(1,2,3,6-tetrahydropyridin-4-yl)thiazol-2-yl]pyrimidine-2,4-diamine] | 8.50 to 9.40 | 25.1 to 158
